Legend:
[1] = tested on: MCF-7 (epithelial breast cancer); assay: Growth inhibition, MTT colorimetric assay, MCF7; type: cell-based; settings: Homo sapiens, MCF7, 72 h; carcinoma; 3 days with drug; means of six values; unit inferred; read-out: IC50 MCF7
Outline: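 Human tumour cell lines were exposed to compounds for 3 days. Proliferation inhibition was read by MTT colorimetric assay and expressed as IC50. Values are means of six determinations.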

caspases 3/7 = assay: Caspases 3/7 activation in HL60 cells (DEVD reagent); type: cell-based, human; settings: 48 hours
Text: 7223, using standard commercially available diagnostic kits (Calbiochem, USA). Assay reagents used were DEVD for caspases 3/7, […] for caspases 8, and LEHD for caspases 9. Moreover, colchicine was used as reference compound that induces this activity of caspases.

In the case of `Oc1ccc(CN(Cc2ccc(C(F)(F)F)cc2)Cc2ccc(O)c3ncccc23)c2cccnc12` [BPM18,708, 5,5′-(4-(trifluoromethyl)benzylazanediyl)bis(methylene)diquinolin-8-ol], the IC50 [1] is reported as 34 nM, the “activation of caspases 3/7” value (caspases 3/7; 0.01 μM) is reported as “neither BPM18,708 nor BPM19,107 has an effect” and the “activation of caspases 3/7” value (caspases 3/7; 0.1 μM) is reported as “strong effect”. The “activation of caspases 3/7” value (caspases 3/7; 1 μM) was “strong effect”.
